Results reported in patent US20220296667A1, “COMPOSITION FOR A[…] TREATING NARCOLEPSY, […] RICE BRAN POWDER AS ACTIVE INGREDIENT, AND PREPARATION METHOD THEREFOR” (RAPHAGEN, priority 2019, published 2022).

Experiments:
[1] = background art; cited from earlier work
zebrafish [2] = assay: Dark/light transition of zebrafish; format: in vivo; conditions: dark and light conditions at 10-minute intervals, distance moved at 2-minute intervals; FIGS. 3, 4, 5
Description: The dark/light transition of zebrafish treated with the fermented rice bran powder obtained according to Example 1 was measured. Specifically, dark and light conditions were given at 10-minute intervals, and graphs for the distance moved at 2-minute intervals were measured (see FIGS. 3, 4, and 5).

zebrafish [3] = conditions: zebrafish whose brain is damaged by PTZ or the like; stated as known; cited from earlier work

In the case of O=C(O)CCCO [GHB, Gamma hydroxybutyrate], the “half-life (in words)” value [1] is listed as “short half-life”.
For C1CCc2nnnn2CC1 [PTZ, Pentylenetetrazol], the “behavior pattern to dark/light (distance moved)” value (zebrafish [2]) is given as “moved regardless of the light/dark division” and the color recognition (zebrafish [3]) is given as “color cannot be normally recognized”.
In the case of NC(=O)C[S+]([O-])C(c1ccccc1)c1ccccc1 (stereo not shown) [modafinil, Modafinil], the half-life [1] is given as no less than 15 h.
